Test results published in patent US11071735B2, “Treatment of inflammatory conditions and autoimmune diseases with glucose uptake inhibitors” (Kadmon Corporation, LLC, priority 2017, dated 2021).

Columns and labels:
Format in all cases: cell-based
GLUT = test: glycolysis assay (oligomycin + Cell Titer-Glo ATP readout) in HT1080 cells; conditions: 10 μM oligomycin, one hour, glycolytically-derived ATP
Excerpt: The combination of inhibitors of both oxidative phosphorylation and glycolysis synergistically suppress cellular ATP levels. Therefore, our assay utilizes the combination of our glucose uptake inhibitors with oligomycin, a well-characterized inhibitor of ATP synthase. Because oligomycin inhibits ATP derived from oxidative phosphorylation, any remaining ATP production is derived from glycolysis. By reading out cellular ATP levels using the Promega
Titer Glo kit, we can assess the extent of glycolysis inhibition by our glucose uptake inhibitors. Using this experimental set-up in HT1080 cancer cells, we determined the IC50 of glycolysis inhibition for the compounds.
(§1) Determination of glucose uptake/GLUT activity (glycolysis assay): HT1080 cells, DLD1 cells (WT and GLUT1−/−) and human CD4+ T cells were plated in 96-well plates. Cells were exposed to the combination of 10 μM Oligomycin (to block mitochondrial-derived ATP) and the glucose uptake inhibitors disclosed herein for one-hour, after which glycolytically-derived ATP was measured with the Cell Titer-Glo assay kit (Promega). Dose-response curves of the glucose uptake inhibitors disclosed herein were used to determine the IC50 for GLUT activity.

GLUT3 = molecular target: T1, GLUT3 (Homo sapiens, UniProt P11169); test: glycolysis assay in DLD1 GLUT1−/− cells (rely on GLUT3); conditions: DLD1-KO (GLUT1−/−) cells; 10 μM oligomycin, one hour
T1 construct: endogenous in cells; host or cells: DLD1 GLUT1−/− (knock-out) cancer cells
T1 sequence (P11169 1-496): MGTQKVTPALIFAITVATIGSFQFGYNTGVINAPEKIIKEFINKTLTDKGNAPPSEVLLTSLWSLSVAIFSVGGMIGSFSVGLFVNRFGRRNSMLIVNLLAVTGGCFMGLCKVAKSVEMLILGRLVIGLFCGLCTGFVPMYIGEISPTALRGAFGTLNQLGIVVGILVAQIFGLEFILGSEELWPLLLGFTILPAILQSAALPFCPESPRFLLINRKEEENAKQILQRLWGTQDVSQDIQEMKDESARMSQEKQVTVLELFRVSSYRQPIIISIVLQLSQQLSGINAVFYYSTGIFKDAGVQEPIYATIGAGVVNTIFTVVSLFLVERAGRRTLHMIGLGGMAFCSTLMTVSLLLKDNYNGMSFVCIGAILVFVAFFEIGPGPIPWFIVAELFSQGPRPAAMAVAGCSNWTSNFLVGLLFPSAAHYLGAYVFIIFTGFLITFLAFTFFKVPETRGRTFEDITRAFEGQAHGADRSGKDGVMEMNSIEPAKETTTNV
Experimental: (§2) Cells were treated with GLUT inhibitors plus oligomycin and subsequently ATP levels were determined using Cell Titer Glo. […] FIG. 1B reports the IC50 of glycolysis inhibition for selected compounds.
(§3) Accordingly, we have investigated the use of inhibitors of GLUT transporters against activated pro-inflammatory immune cells, including but not limited to activated human CD4+ T cells. In order to understand what GLUT transporters are required to sustain glycolysis in activated T cells, we first utilized the syngeneic cancer cell lines DLD1 WT and DLD GLUT1−/− that rely on GLUT1 and GLUT3 expression, respectively, for glucose transport. Within this system, we have identified small molecules that simultaneously have the property of inhibiting both GLUT1 and GLUT3 mediated glucose transport. In addition, we have confirmed the GLUT1-selective nature of a published small molecule inhibitor of GLUT1 (Chem Med Chem. 2016 Oct. 19; 11(20):2261-2271).
as §1

GLUT1 = molecular target: T2, GLUT1 (Homo sapiens, UniProt P11166); test: glycolysis assay in DLD1 WT cells (rely on GLUT1); conditions: DLD1-WT cells; 10 μM oligomycin, one hour
T2 construct: endogenous in cells; host or cells: DLD1 WT cancer cells
T2 sequence (P11166 1-492): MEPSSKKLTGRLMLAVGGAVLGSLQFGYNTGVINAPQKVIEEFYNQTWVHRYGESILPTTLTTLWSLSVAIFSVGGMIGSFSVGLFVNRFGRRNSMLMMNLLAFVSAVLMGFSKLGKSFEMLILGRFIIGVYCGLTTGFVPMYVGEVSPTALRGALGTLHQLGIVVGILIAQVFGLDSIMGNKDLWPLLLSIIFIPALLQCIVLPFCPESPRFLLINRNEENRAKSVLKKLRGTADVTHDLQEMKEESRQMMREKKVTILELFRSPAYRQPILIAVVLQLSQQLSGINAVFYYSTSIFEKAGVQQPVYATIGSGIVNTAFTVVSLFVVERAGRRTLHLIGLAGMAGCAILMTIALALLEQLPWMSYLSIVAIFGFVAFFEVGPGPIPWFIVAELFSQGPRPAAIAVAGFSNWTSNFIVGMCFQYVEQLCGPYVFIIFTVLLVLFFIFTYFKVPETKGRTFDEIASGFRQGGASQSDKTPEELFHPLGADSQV
Experimental: as §2, §3, §1

Row | Compound | IC50 (GLUT) [nM] | IC50 (GLUT3) [nM] | IC50 (GLUT1) [nM]
1 | CCC(C)NC(=O)COc1cccc(-c2nc(Nc3ccc(-c4cn[nH]c4)cc3)c3cc(OC)ccc3n2)c1 (stereo not drawn) [Ex. 22, 2-(3-(4-((4-(1H-pyrazol-4-yl)phenyl)amino)-6-methoxyquinazolin-2-yl)phenoxy)-N-(sec-butyl)acetamide] | 112 | 66.8 | 105
2 | COc1ccc2nc(-c3cccc(OCC(=O)NC(CF)CF)c3)nc(Nc3ccc(-c4cn[nH]c4)cc3)c2c1 [Ex. 23, 2-(3-(4-((4-(1H-pyrazol-4-yl)phenyl)amino)-6-methoxyquinazolin-2-yl)phenoxy)-N-(1,3-difluoropropan-2-yl)acetamide] | 258 | 110 | 463
3 | CCOc1ccc2nc(-c3cccc(OCC(=O)NCC(F)(F)F)c3)nc(Nc3ccc(-c4cn[nH]c4)cc3)c2c1 [Ex. 24, 2-(3-(4-((4-(1H-pyrazol-4-yl)phenyl)amino)-6-ethoxyquinazolin-2-yl)phenoxy)-N-(2,2,2-trifluoroethyl)acetamide] | 454 | 86 | 801
4 | COc1ccc2nc(-c3cccc(OCC(=O)NCC(F)(F)F)c3)nc(Nc3ccc(-c4cn[nH]c4)cc3)c2c1 [Ex. 25, 2-(3-(4-((4-(1H-pyrazol-4-yl)phenyl)amino)-6-methoxyquinazolin-2-yl)phenoxy)-N-(2,2,2-trifluoroethyl)acetamide] | 433 | 68.4 | 1070
5 | CCOc1ccc2nc(-c3cccc(OCC(=O)NC(C)(C)C)c3)nc(Nc3ccc(-c4cc[nH]n4)cc3)c2c1 [Ex. 27, 2-(3-(4-((4-(1H-Pyrazol-3-yl)phenyl)amino)-6-ethoxyquinazolin-2-yl)phenoxy)-N-(tert-butyl)acetamide] | 310 | 116 | 252
6 | CCOc1ccc2nc(-c3cccc(OCC(=O)NC(C)C)c3)nc(Nc3ccc(-c4cc[nH]n4)cc3)c2c1 [Ex. 28, 2-(3-(4-((4-(1H-Pyrazol-3-yl)phenyl)amino)-6-ethoxyquinazolin-2-yl)phenoxy)-N-isopropylacetamide] | 545 | 105 | 496
7 | CC(C)(C)NC(=O)COc1cccc(-c2nc(Nc3ccc(-c4cn[nH]c4)cc3)c3cc(F)ccc3n2)c1 [Ex. 29, 2-(3-(4-((4-(1H-Pyrazol-4-yl)phenyl)amino)-6-fluoroquinazolin-2-yl)phenoxy)-N-(tert-butyl)acetamide] | 123 | 142 | 124
8 | CC(C)(C)NC(=O)COc1cccc(-c2nc(Nc3ccc(-c4cn[nH]c4)cc3)c3ccc(F)cc3n2)c1 [Ex. 30, 2-(3-(4-((4-(1H-Pyrazol-4-yl)phenyl)amino)-7-fluoroquinazolin-2-yl)phenoxy)-N-(tert-butyl)acetamide] | 425 | 195 | 624
9 | COCCOc1ccc2nc(-c3cccc(OCC(=O)NC(C)C)c3)nc(Nc3ccc(-c4cn[nH]c4)cc3)c2c1 [Ex. 31, 2-(3-(4-((4-(1H-Pyrazol-4-yl)phenyl)amino)-6-(2-methoxyethoxy)quinazolin-2-yl)phenoxy)-N-isopropylacetamide] | 53.5 | 59.2 | 62.1
10 | CCCOc1ccc2nc(-c3cccc(OCC(=O)NC(C)C)c3)nc(Nc3ccc(-c4cn[nH]c4)cc3)c2c1 [Ex. 32, 2-(3-(4-((4-(1H-Pyrazol-4-yl)phenyl)amino)-6-propoxyquinazolin-2-yl)phenoxy)-N-isopropylacetamide] | 188 | 305 | 178
11 | CC(C)NC(=O)COc1cccc(-c2nc(Nc3ccc(-c4cn[nH]c4)cc3)c3cc(F)ccc3n2)c1 [Ex. 33, 2-(3-(4-((4-(1H-pyrazol-4-yl)phenyl)amino)-6-fluoroquinazolin-2-yl)phenoxy)-N-isopropylacetamide] | 424 | 183 | 802
12 | CCCOc1ccc2nc(-c3cccc(OCC(=O)NC(C)(C)C)c3)nc(Nc3ccc(-c4cn[nH]c4)cc3)c2c1 [Ex. 37, 2-(3-(4-((4-(1H-Pyrazol-4-yl)phenyl)amino)-6-propoxyquinazolin-2-yl)phenoxy)-N-(tert-butyl)acetamide] | 128 | 158 | 89.3
13 | COCCOc1ccc2nc(-c3cccc(OCC(=O)NC(C)(C)C)c3)nc(Nc3ccc(-c4cn[nH]c4)cc3)c2c1 [Ex. 39, 2-(3-(4-((4-(1H-Pyrazol-4-yl)phenyl)amino)-6-(2-methoxyethoxy)quinazolin-2-yl)phenoxy)-N-(tert-butyl)acetamide] | 34.1 | 34.2 | 40.6
14 | CC(C)NC(=O)COc1cccc(-c2nc(Nc3ccc(-c4cn[nH]c4)cc3)c3cc(OCCF)ccc3n2)c1 [Ex. 40, 2-(3-(4-((4-(1H-Pyrazol-4-yl)phenyl)amino)-6-(2-fluoroethoxy)quinazolin-2-yl)phenoxy)-N-isopropylacetamide] | 98 | 68.3 | 160

Next, values leading:

Row | IC50 (GLUT) [nM] | IC50 (GLUT3) [nM] | IC50 (GLUT1) [nM] | Compound
15 | 418 | 197 | 797 | CC(C)NC(=O)COc1cccc(-c2nc(Nc3ccc(-c4cn[nH]c4)cc3)c3ccc(F)cc3n2)c1 [Ex. 34, 2-(3-(4-((4-(1H-Pyrazol-4-yl)phenyl)amino)-7-fluoroquinazolin-2-yl)phenoxy)-N-isopropylacetamide]
16 | 134 | 94.2 | 130 | CCOc1ccc2nc(-c3cccc(OCC(=O)N[C@@H](C)CC)c3)nc(Nc3ccc(-c4cn[nH]c4)cc3)c2c1 [Ex. 35, (S)-2-(3-(4-((4-(1H-Pyrazol-4-yl)phenyl)amino)-6-ethoxyquinazolin-2-yl)phenoxy)-N-(sec-butyl)acetamide]
17 | 137 | 130 | 116 | CCOc1ccc2nc(-c3cccc(OCC(=O)N[C@H](C)CC)c3)nc(Nc3ccc(-c4cn[nH]c4)cc3)c2c1 [Ex. 36, (R)-2-(3-(4-((4-(1H-Pyrazol-4-yl)phenyl)amino)-6-ethoxyquinazolin-2-yl)phenoxy)-N-(sec-butyl)acetamide]
18 | 60.8 | 51.5 | 65.7 | CC(C)(C)NC(=O)COc1cccc(-c2nc(Nc3ccc(-c4cn[nH]c4)cc3)c3cc(OCCF)ccc3n2)c1 [Ex. 38, 2-(3-(4-((4-(1H-Pyrazol-4-yl)phenyl)amino)-6-(2-fluoroethoxy)quinazolin-2-yl)phenoxy)-N-(tert-butyl)acetamide]
19 | 107 | 191 | 48.8 | CC(C)NC(=O)COc1cccc(-c2nc(Nc3ccc(-c4cn[nH]c4)cc3)c3cc(OC(C)C)ccc3n2)c1 [Ex. 41, 2-(3-(4-((4-(1H-pyrazol-4-yl)phenyl)amino)-6-isopropoxyquinazolin-2-yl)phenoxy)-N-isopropylacetamide]
20 | 31.2 | 41.6 | 30.7 | CCC(C)NC(=O)COc1cccc(-c2nc(Nc3ccc(-c4cn[nH]c4)cc3)c3cc(OCCOC)ccc3n2)c1 (stereo not drawn) [Ex. 42, 2-(3-(4-((4-(1H-pyrazol-4-yl)phenyl)amino)-6-(2-methoxyethoxy)quinazolin-2-yl)phenoxy)-N-(sec-butyl)acetamide]
